Results on 13 cell lines are retold here after the supplement of paper PMC10307832.

What all share (experiment): relative viability (nuclei count vs DMSO), 5 days (fraction); higher = more cells survive
Compound in the assay “BAM7 + Alpelisib”: CCOC1=CC=CC=C1N=NC2=C(NN(C2=O)C3=NC(=CS3)C4=CC=CC=C4)C [BAM7] + Cc1nc(NC(=O)N2CCC[C@H]2C(N)=O)sc1-c1ccnc(C(C)(C)C(F)(F)F)c1 [Alpelisib] (partner 2 µM)
In short, it runs like this: (§1)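 Five library-drug doses in √10 steps were combined with a fixed anchor-drug dose, or a single drug was given alone, by pin tool to lung cancer cell lines in 1536-well plates the day after seeding. Nuclei were stained and counted after 5 days. Relative viability is the nuclei count in treated wells over that in vehicle wells, taken as the median of duplicate plates.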

Compound in assay [1]: CCn1c(-c2nonc2N)nc2c(C#CC(C)(C)O)ncc(OC[C@H]3CCCNC3)c21 + CS(=O)(=O)N1CCN(Cc2cc3nc(-c4cccc5[nH]ncc45)nc(N4CCOCC4)c3s2)CC1 [Pictilisib] (partner 1 µM)
In short, it runs like this:
as §1

Compound in the assay “BAM7 + Palbociclib”: CCOC1=CC=CC=C1N=NC2=C(NN(C2=O)C3=NC(=CS3)C4=CC=CC=C4)C [BAM7] + CC(=O)c1c(C)c2cnc(Nc3ccc(N4CCNCC4)cn3)nc2n(C2CCCC2)c1=O [Palbociclib] (partner 0.5 µM)
Put shortly: as §1

Compound in assay [2]: CCn1c(-c2nonc2N)nc2c(C#CC(C)(C)O)ncc(OC[C@H]3CCCNC3)c21 + Nc1nc2[nH]cc(CCc3ccc(C(=O)N[C@@H](CCC(=O)O)C(=O)O)cc3)c2c(=O)[nH]1 [Pemetrexed] (partner 0.2 µM)
Put shortly: as §1

As for NCI-H1299, the relative viability with BAM7 + Alpelisib (first compound 0.5 µM) was found to be 1.06; in the assay with BAM7 + Alpelisib (first compound 5 µM), 1.1; in the assay with BAM7 + Alpelisib (first compound 15.81 µM), 1.03; with BAM7 + Alpelisib (first compound 50 µM), 0.992; in assay [1] (first compound 0.01 µM), 0.817; in assay [1] (first compound 0.03162 µM) it was 0.954. The relative viability came out at 0.773 in assay [1] (first compound 0.1 µM), 0.76 in assay [1] (first compound 0.3162 µM) and 0.753 in assay [1] (first compound 1 µM).

Turning to NCI-H727, the relative viability was 0.579 with BAM7 + Palbociclib (first compound 0.5 µM); 0.689 in the assay with BAM7 + Palbociclib (first compound 5 µM); 0.714 in the assay with BAM7 + Palbociclib (first compound 15.81 µM); 0.731 in the assay with BAM7 + Palbociclib (first compound 50 µM); 0.599 with BAM7 + Alpelisib (first compound 0.5 µM); 0.576 in the assay with BAM7 + Alpelisib (first compound 5 µM). In addition, the relative viability with BAM7 + Alpelisib (first compound 15.81 µM) came out at 0.57; with BAM7 + Alpelisib (first compound 50 µM), 0.663; in assay [1] (first compound 0.01 µM), 0.441; in assay [1] (first compound 0.03162 µM), 0.355; in assay [1] (first compound 0.1 µM), 0.275; in assay [1] (first compound 0.3162 µM) it was 0.43. Besides, in assay [1] (first compound 1 µM), the relative viability stood at 0.315.

As for ABC-1, the relative viability was 0.548 with BAM7 + Palbociclib (first compound 0.5 µM); 0.667 in the assay with BAM7 + Palbociclib (first compound 5 µM); 0.774 with BAM7 + Palbociclib (first compound 15.81 µM); 0.584 with BAM7 + Palbociclib (first compound 50 µM); 1.37 with BAM7 + Alpelisib (first compound 0.5 µM); 0.968 with BAM7 + Alpelisib (first compound 5 µM). The relative viability with BAM7 + Alpelisib (first compound 15.81 µM) was 0.851; in the assay with BAM7 + Alpelisib (first compound 50 µM), 0.914; in assay [1] (first compound 0.01 µM), 0.64; in assay [1] (first compound 0.03162 µM), 0.862; in assay [1] (first compound 0.1 µM), 0.73; in assay [1] (first compound 0.3162 µM) it was 0.569. The relative viability in assay [1] (first compound 1 µM) stood at 0.634.

Turning to NCI-H1650, the relative viability with BAM7 + Palbociclib (first compound 0.5 µM) came out at 0.351; with BAM7 + Palbociclib (first compound 5 µM), 0.268; with BAM7 + Palbociclib (first compound 15.81 µM), 0.304; in the assay with BAM7 + Palbociclib (first compound 50 µM), 0.456; in assay [1] (first compound 0.01 µM), 0.531; in assay [1] (first compound 0.03162 µM), 0.602. For the same cell line, the relative viability in assay [1] (first compound 0.1 µM) amounted to 0.441; in assay [1] (first compound 0.3162 µM), 0.586; in assay [1] (first compound 1 µM), 0.562; in assay [2] (first compound 0.01 µM), 0.361; in assay [2] (first compound 0.03162 µM), 0.352; in assay [2] (first compound 0.1 µM), 0.369. The figures for the relative viability in assay [2] (first compound 0.3162 µM) and in assay [2] (first compound 1 µM) were 0.359 and 0.348, respectively.

Take ChaGo-K-1: the relative viability with BAM7 + Palbociclib (first compound 0.5 µM) is 1.02; with BAM7 + Palbociclib (first compound 5 µM), 0.965; in the assay with BAM7 + Palbociclib (first compound 15.81 µM), 0.819; in the assay with BAM7 + Palbociclib (first compound 50 µM) it was 0.902; in assay [1] (first compound 0.01 µM), 0.824; in assay [1] (first compound 0.03162 µM), 0.601. Moreover, the relative viability was found to be 0.7 in assay [1] (first compound 0.1 µM); 0.756 in assay [1] (first compound 0.3162 µM); 0.839 in assay [1] (first compound 1 µM); 0.262 in assay [2] (first compound 0.01 µM); 0.254 in assay [2] (first compound 0.03162 µM); 0.26 in assay [2] (first compound 0.1 µM). Also, the figures for the relative viability in assay [2] (first compound 0.3162 µM) and in assay [2] (first compound 1 µM) were 0.258 and 0.248, respectively.

For the cell line NCI-H1648, the relative viability with BAM7 + Palbociclib (first compound 0.5 µM) came out at 0.303; with BAM7 + Palbociclib (first compound 5 µM), 0.257; with BAM7 + Palbociclib (first compound 15.81 µM), 0.264; with BAM7 + Palbociclib (first compound 50 µM), 0.375; in assay [2] (first compound 0.01 µM) it was 0.62; in assay [2] (first compound 0.03162 µM), 0.756. In addition, the relative viability in assay [2] (first compound 0.1 µM) was 0.759; in assay [2] (first compound 0.3162 µM) it was 0.664; in assay [2] (first compound 1 µM), 0.723.

Consider NCI-H596, for which the relative viability in the assay with BAM7 + Alpelisib (first compound 0.5 µM) turned out to be 0.461; in the assay with BAM7 + Alpelisib (first compound 5 µM), 0.463; in the assay with BAM7 + Alpelisib (first compound 15.81 µM) it was 0.425; with BAM7 + Alpelisib (first compound 50 µM), 0.492; in assay [1] (first compound 0.01 µM), 0.398; in assay [1] (first compound 0.03162 µM), 0.344. Further, the relative viability was determined as 0.366 in assay [1] (first compound 0.1 µM); 0.377 in assay [1] (first compound 0.3162 µM); 0.436 in assay [1] (first compound 1 µM); 0.48 in assay [2] (first compound 0.01 µM); 0.443 in assay [2] (first compound 0.1 µM); 0.47 in assay [2] (first compound 0.3162 µM). The relative viability in assay [2] (first compound 1 µM) stood at 0.5.

For NCI-H1563, the relative viability with BAM7 + Alpelisib (first compound 0.5 µM) is 0.991; in the assay with BAM7 + Alpelisib (first compound 5 µM), 0.864; with BAM7 + Alpelisib (first compound 15.81 µM), 0.864; with BAM7 + Alpelisib (first compound 50 µM), 0.929; in assay [1] (first compound 0.01 µM), 0.689; in assay [1] (first compound 0.03162 µM), 0.618. In addition, the relative viability in assay [1] (first compound 0.1 µM) was found to be 0.686; in assay [1] (first compound 0.3162 µM), 0.615; in assay [1] (first compound 1 µM), 0.633; in assay [2] (first compound 0.01 µM) it was 0.76; in assay [2] (first compound 0.03162 µM), 0.674; in assay [2] (first compound 0.1 µM), 0.678. Besides, the relative viability worked out at 0.702 in assay [2] (first compound 0.3162 µM) and 0.854 in assay [2] (first compound 1 µM).

Turning to A549, the relative viability was found to be 0.872 with BAM7 + Alpelisib (first compound 0.5 µM); 0.722 with BAM7 + Alpelisib (first compound 5 µM); 0.846 with BAM7 + Alpelisib (first compound 15.81 µM); 0.845 with BAM7 + Alpelisib (first compound 50 µM); 0.505 in assay [1] (first compound 0.01 µM); 0.536 in assay [1] (first compound 0.03162 µM). In addition, the relative viability in assay [1] (first compound 0.1 µM) came to 0.471; in assay [1] (first compound 0.3162 µM), 0.334; in assay [1] (first compound 1 µM), 0.361.

For NCI-H522, the relative viability came to 1.19 in the assay with BAM7 + Palbociclib (first compound 0.5 µM); 0.986 in the assay with BAM7 + Palbociclib (first compound 5 µM); 0.649 with BAM7 + Palbociclib (first compound 15.81 µM); 1.16 with BAM7 + Palbociclib (first compound 50 µM); 0.989 in assay [2] (first compound 0.01 µM); 1.02 in assay [2] (first compound 0.03162 µM). The relative viability turned out to be 0.915 in assay [2] (first compound 0.1 µM), 0.95 in assay [2] (first compound 0.3162 µM) and 1.17 in assay [2] (first compound 1 µM).

Take SW 900: the relative viability with BAM7 + Palbociclib (first compound 5 µM) was 0.543; with BAM7 + Palbociclib (first compound 50 µM) it was 0.596; in assay [2] (first compound 0.01 µM) it was 0.488; in assay [2] (first compound 0.03162 µM), 0.502; in assay [2] (first compound 0.1 µM), 0.465; in assay [2] (first compound 0.3162 µM) it was 0.385. Further, the relative viability in assay [2] (first compound 1 µM) turned out to be 0.499.

Turning to IA-LM, the relative viability in the assay with BAM7 + Alpelisib (first compound 0.5 µM) came to 0.67; in the assay with BAM7 + Alpelisib (first compound 5 µM), 0.648; with BAM7 + Alpelisib (first compound 15.81 µM), 0.659; with BAM7 + Alpelisib (first compound 50 µM) it was 0.994; in assay [1] (first compound 0.01 µM) it was 0.355; in assay [1] (first compound 0.03162 µM) it was 0.316. In addition, the relative viability in assay [1] (first compound 0.1 µM) stood at 0.276; in assay [1] (first compound 0.3162 µM), 0.26; in assay [1] (first compound 1 µM) it was 0.168.

With EBC-1, the relative viability with BAM7 + Alpelisib (first compound 0.5 µM) amounted to 1.05; with BAM7 + Alpelisib (first compound 5 µM), 0.805; with BAM7 + Alpelisib (first compound 15.81 µM), 0.814; with BAM7 + Alpelisib (first compound 50 µM), 0.953; in assay [1] (first compound 0.01 µM), 0.41; in assay [1] (first compound 0.03162 µM), 0.386. Moreover, the relative viability came to 0.32 in assay [1] (first compound 0.1 µM), 0.343 in assay [1] (first compound 0.3162 µM) and 0.262 in assay [1] (first compound 1 µM).
